# Measured values taken from ChEMBL document CHEMBL1201862, “PubChem BioAssay data set” (2004).
# “And” between values parts separate entries of the source, which are not always exact repeats. Identical values can stand only once.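 Briefly, cells in 96-well plates were exposed to five compound concentrations for 48 h, and endpoints were estimated by linear interpolation. GI50 is the concentration that inhibits growth by half.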 The source made the active and inactive calls. Cut-off read from the data, not from the text of the source: active = GI50 up to about 1.1 µM and inactive = higher.
# Legend:
# Experiment in all cases: DTP human tumour cell line panel, 48 h
# [1] = test system: 786-0
# [2] = test system: A498
# [3] = test system: A549
# [4] = test system: ACHN
# [5] = test system: CCRF-CEM
# [6] = test system: DLD-1
# [7] = test system: DMS-114
# [8] = test system: DMS-273
# [9] = test system: EKVX
# [10] = test system: HCC 2998
# [11] = test system: HCT-116
# [12] = test system: HCT-15
# [13] = test system: HL-60
# [14] = test system: HOP-18
# [15] = test system: HOP-62
# [16] = test system: HOP-92
# [17] = test system: HT-29
# [18] = test system: IGROV-1
# [19] = test system: K562
# [20] = test system: KM-20L2
# [21] = test system: KM12
# [22] = test system: LOX IMVI
# [23] = test system: LXFL 529
# [24] = test system: M14
# [25] = test system: MOLT-4
# [26] = test system: Malme-3M
# [27] = test system: NCI-H226
# [28] = test system: NCI-H23
# [29] = test system: NCI-H460
# [30] = test system: NCI-H522
# [31] = test system: OVCAR-3
# [32] = test system: OVCAR-4
# [33] = test system: OVCAR-5
# [34] = test system: OVCAR-8
# [35] = test system: RPMI-8226
# [36] = test system: RXF 393
# [37] = test system: RXF 631
# [38] = test system: SF-268
# [39] = test system: SF-295
# [40] = test system: SF-539
# [41] = test system: SK-MEL-28
# [42] = test system: SK-MEL-5
# [43] = test system: SK-OV-3
# [44] = test system: SN12C
# [45] = test system: SNB-19
# [46] = test system: SNB-75
# [47] = test system: SR
# [48] = test system: SW-620
# [49] = test system: TK-10
# [50] = test system: U-251
# [51] = test system: UACC-257
# [52] = test system: UACC-62
# [53] = test system: UO-31
# [54] = test system: CAKI-1
# [55] = test system: COLO 205
# [56] = test system: M19-MEL
# [57] = test system: SK-MEL-2
# [58] = test system: NCI/ADR-RES
smiles,measurement,setting,value
N#Cc1c(-c2ccco2)cc(-c2ccc(N)cc2)[nH]c1=O,GI50,[1],> 100 µM (inactive)
same,GI50,[2],> 100 µM (inactive)
same,GI50,[3],> 100 µM (inactive)
same,GI50,[4],> 100 µM (inactive)
same,GI50,[5],> 100 µM (inactive)
same,GI50,[6],> 100 µM (inactive)
same,GI50,[7],> 100 µM (inactive)
same,GI50,[8],> 100 µM (inactive)
same,GI50,[9],> 100 µM (inactive)
same,GI50,[10],> 100 µM (inactive)
same,GI50,[11],> 100 µM (inactive)
same,GI50,[12],> 100 µM
same,GI50,[13],> 100 µM (inactive)
same,GI50,[14],> 100 µM (inactive)
same,GI50,[15],> 100 µM (inactive)
same,GI50,[16],> 100 µM (inactive)
same,GI50,[17],> 100 µM (inactive)
same,GI50,[18],> 100 µM (inactive)
same,GI50,[19],> 100 µM (inactive)
same,GI50,[20],> 100 µM (inactive)
same,GI50,[21],> 100 µM (inactive)
same,GI50,[22],> 100 µM (inactive)
same,GI50,[23],> 100 µM (inactive)
same,GI50,[24],> 100 µM (inactive)
same,GI50,[25],> 100 µM (inactive)
same,GI50,[26],> 100 µM (inactive)
same,GI50,[27],> 100 µM (inactive)
same,GI50,[28],> 100 µM (inactive)
same,GI50,[29],> 100 µM (inactive)
same,GI50,[30],> 100 µM (inactive)
same,GI50,[31],> 100 µM (inactive)
same,GI50,[32],> 100 µM (inactive)
same,GI50,[33],> 100 µM (inactive)
same,GI50,[34],> 100 µM (inactive)
same,GI50,[35],> 100 µM (inactive)
same,GI50,[36],> 100 µM (inactive)
same,GI50,[37],> 100 µM (inactive)
same,GI50,[38],> 100 µM (inactive)
same,GI50,[39],> 100 µM (inactive)
same,GI50,[40],> 100 µM (inactive)
same,GI50,[41],> 100 µM (inactive)
same,GI50,[42],> 100 µM (inactive)
same,GI50,[43],> 100 µM (inactive)
same,GI50,[44],> 100 µM (inactive)
same,GI50,[45],> 100 µM (inactive)
same,GI50,[46],> 100 µM (inactive)
same,GI50,[47],> 100 µM (inactive)
same,GI50,[48],> 100 µM (inactive)
same,GI50,[49],> 100 µM (inactive)
same,GI50,[50],> 100 µM (inactive)
same,GI50,[51],> 100 µM (inactive)
same,GI50,[52],> 100 µM (inactive)
same,GI50,[53],> 100 µM (inactive)
O=C(c1nc2ccc(Cl)cc2[nH]c1=O)C(O)c1ccco1 (stereo not drawn),GI50,[1],> 100 µM (inactive)
same,GI50,[3],50 µM (inactive)
same,GI50,[4],38.6 µM (inactive)
same,GI50,[54],53 µM (inactive)
same,GI50,[5],1.37 µM (inactive)
same,GI50,[55],> 100 µM (inactive)
same,GI50,[6],> 100 µM (inactive)
same,GI50,[7],4.91 µM (inactive)
same,GI50,[8],35.5 µM (inactive)
same,GI50,[9],> 100 µM (inactive)
same,GI50,[10],44 µM (inactive)
same,GI50,[11],46.7 µM (inactive)
same,GI50,[12],15.5 µM
same,GI50,[13],6.14 µM (inactive)
same,GI50,[14],> 100 µM (inactive)
same,GI50,[16],> 100 µM (inactive)
same,GI50,[17],83.6 µM (inactive)
same,GI50,[18],45.9 µM (inactive)
same,GI50,[19],22.1 µM (inactive)
same,GI50,[20],24.5 µM (inactive)
same,GI50,[22],36.6 µM (inactive)
same,GI50,[23],42.9 µM (inactive)
same,GI50,[24],29.4 µM (inactive)
same,GI50,[56],> 100 µM (inactive)
same,GI50,[25],8.57 µM (inactive)
same,GI50,[26],> 100 µM (inactive)
same,GI50,[27],> 100 µM (inactive)
same,GI50,[28],> 100 µM (inactive)
same,GI50,[29],57.9 µM (inactive)
same,GI50,[30],1.9 µM (inactive)
same,GI50,[31],46 µM (inactive)
same,GI50,[32],> 100 µM (inactive)
same,GI50,[33],> 100 µM (inactive)
same,GI50,[36],> 100 µM (inactive)
same,GI50,[37],6.04 µM (inactive)
same,GI50,[38],98.9 µM (inactive)
same,GI50,[39],> 100 µM (inactive)
same,GI50,[40],38.1 µM (inactive)
same,GI50,[41],> 100 µM (inactive)
same,GI50,[57],87.1 µM (inactive)
same,GI50,[42],25.5 µM (inactive)
same,GI50,[43],> 100 µM (inactive)
same,GI50,[45],> 100 µM (inactive)
same,GI50,[46],> 100 µM (inactive)
same,GI50,[48],> 100 µM (inactive)
same,GI50,[49],> 100 µM (inactive)
same,GI50,[51],> 100 µM (inactive)
same,GI50,[52],40.4 µM (inactive)
same,GI50,[53],42.9 µM (inactive)
COC1=C(C)C(=O)C2=C(C1=O)C(CO)N1C(C#N)C3CC4C(C1C2N1CCOC41)N3C (stereo not drawn),GI50,[1],20 nM (active) and 26.8 nM (active)
same,GI50,[2],0.146 µM (active)
same,GI50,[3],354 nM (active) and 321 nM (active)
same,GI50,[4],64.1 nM (active) and 38.8 nM (active)
same,GI50,[6],0.00706 µM (active)
same,GI50,[8],0.02 µM (active)
same,GI50,[9],314 nM (active) and 305 nM (active)
same,GI50,[10],72.4 nM (active) and 60.3 nM (active)
same,GI50,[12],< 0.01 µM and 0.0144 µM
same,GI50,[13],0.0133 µM (active)
same,GI50,[14],0.132 µM (active)
same,GI50,[15],270 nM (active) and 166 nM (active)
same,GI50,[16],24.1 nM (active) and < 16.9 nM (active)
same,GI50,[18],45.1 nM (active) and 32.4 nM (active)
same,GI50,[20],0.0617 µM (active)
same,GI50,[21],58.8 nM (active) and 80.7 nM (active)
same,GI50,[22],11.6 nM (active) and < 14.1 nM (active)
same,GI50,[56],0.0492 µM (active)
same,GI50,[25],0.0128 µM (active)
same,GI50,[27],99.3 nM (active) and 57.9 nM (active)
same,GI50,[28],35.2 nM (active) and 39.1 nM (active)
same,GI50,[29],90.8 nM (active) and 150 nM (active)
same,GI50,[58],22.6 nM (active) and 31.5 nM (active)
same,GI50,[33],262 nM (active) and 241 nM (active)
same,GI50,[34],30.3 nM (active) and 19.3 nM (active)
same,GI50,[36],20.9 nM (active) and 20.6 nM (active)
same,GI50,[37],0.167 µM (active)
same,GI50,[38],78.5 nM (active) and 85.9 nM (active)
same,GI50,[39],292 nM (active) and 179 nM (active)
same,GI50,[41],51.8 nM (active) and 52 nM (active)
same,GI50,[57],15.8 nM (active) and 19.4 nM (active)
same,GI50,[42],50.7 nM (active) and 29.9 nM (active)
same,GI50,[43],164 nM (active) and 261 nM (active)
same,GI50,[46],20.6 nM (active) and 39.5 nM (active)
same,GI50,[48],< 14.6 nM (active) and 16.4 nM (active)
same,GI50,[51],26.2 nM (active) and 27.7 nM (active)
